Reference: patent publication EP0240392A1, “Compounds of the cyclophosphazene type, process for their preparation and pharmaceutical preparation containing them” (CENTRE NATIONAL DE LA RECHERCHE SCIENTIFIQUE (CNRS), priority 1986, dated 1987)
Read-outs that look alike come from different tables or passages of the source. Marks after values point to notes of the source that are not given here.

What was measured:
[1] = Acute toxicity i.p. in mice (DLo, maximal non-lethal dose); assay type: in vivo, souris mâles Swiss ou CD2F1
Description: La toxicité de SPM a été déterminée sur des souris mâles Swiss ou CD2F1. La léthalité, quand elle existe, apparaît systématiquement aux jours 5 et 6 après l'adminstration par voie i.p. L'enregistrement de cette léthalité en fonction de la dose injectée permet de déduire la DLo qui est la dose maximale non léthale. La même valeur de DLo a été obtenue chez les Swiss et les CD2F1 : elle a été trouvée égale à 1 500 mg/kg. C'est là un résultat remarquable.

ERYTH[…] K562 = assay: Growth of human erythroleukemia K562 in vitro; assay type: cell-based, humaine
[2] = tested on: LEUCEMIE P388 INTRACEREBRALE; assay: Antitumour activity on intracerebral P388 leukemia in mice; assay type: in vivo, souris CD2F1; conditions: Tableau 2, inoculation i.c.
Excerpt: (§1) Les tests d'activité antitumorale ont été conduits au sein du Screening and Pharmacology Group de l'E.O.R.T.C., implanté à l'Institut Mario Negri de Milan.
(§2) Ces essais ont été conduits soit en mono-injection à différentes doses au jour J+1 suivant la greffe de la tumeur, soit en poly-injections chroniques Q1D, soit en protocoles Q4D.
(§3) L'activité antitumorale est mesurée par le rapport T/C %, T (en jours) étant le durée moyenne de vie des souris traitées, C (en jours) étant la durée moyenne de vie des souris témoins.
(§4) L'effet thérapeutique est considéré comme significatif quant T/C % est supérieur ou égal à 125.

[3] = Solubility in water and physiological serum; assay type: physicochemical
Excerpt: La solubilité dans l'eau et dans le sérum physiologique est supérieure à 20 g/l ce qui est donc largement suffisant pour la réalisation de formes injectables.

LEUCEMIE L1210 = assay: Antitumour activity on L1210 leukemia implanted i.p. in mice; assay type: in vivo, souris CD2F1; set-up: key to T/C (%): Δ: 2 souris mortes avant le 5ème jour, 1 souris au jour 6, 2 souris au jour 16 et la dernière était encore vivante après le 40ème jour
Excerpt: as §1, §2, §3, §4

LEUCEMIE P388 = assay: Antitumour activity on P388 leukemia implanted i.p. in mice; assay type: in vivo, souris CD2F1
Excerpt: as §1, §2, §3, §4

[4] = tested on: CARCINOME DU POUMON DE LEWIS; assay: Antitumour activity on Lewis lung carcinoma implanted i.m. in mice; assay type: in vivo, souris C57Bl/6
Excerpt: as §1, §2

[5] = 200 mg/kg i.p. x j 1,5,9, sacrifice jour 25

C(CCN1CCCNP12=NP(N1CC1)(N1CC1)=NP(N1CC1)(N1CC1)=N2)CN1CCCNP12=NP(N1CC1)(N1CC1)=NP(N1CC1)(N1CC1)=N2 (centres unmarked) [SPM]
DLo (dose maximale non léthale) ([1]; souris mâles CD2F1, i.p.): 1 500 mg/kg | DLo (dose maximale non léthale) ([1]; souris mâles Swiss, i.p.): 1 500 mg/kg | Nombre de cellules x 10^4 (ERYTH[…] K562; 0,01 µg/ml, 24 heures): 20,7 ± 1,7 x 10^4 | Nombre de cellules x 10^4 (ERYTH[…] K562; 0,1 µg/ml, 24 heures): 17,8 ± 1,7 x 10^4 | Nombre de cellules x 10^4 (ERYTH[…] K562; 0,01 µg/ml, 48 heures): 41,5 ± 1,6 x 10^4 | Nombre de cellules x 10^4 (ERYTH[…] K562; 0,1 µg/ml, 48 heures): 37,2 ± 4,5 x 10^4 | Nombre de cellules x 10^4 (ERYTH[…] K562; 0,01 µg/ml, 72 heures): 60,7 ± 5,8 x 10^4 | Nombre de cellules x 10^4 (ERYTH[…] K562; 0,1 µg/ml, 72 heures): 60,6 ± 5,4 x 10^4 | Nombre de cellules x 10^4 (ERYTH[…] K562; 1 µg/ml, 24 heures): 17,8 ± 3,3 x 10^4 | Nombre de cellules x 10^4 (ERYTH[…] K562; 1 µg/ml, 48 heures): 36,4 ± 1,8 x 10^4 | Nombre de cellules x 10^4 (ERYTH[…] K562; 1 µg/ml, 72 heures): 50,9 ± 4,3 x 10^4 | Nombre de cellules x 10^4 (ERYTH[…] K562; 5 µg/ml, 24 heures): 17,3 ± 1,4 x 10^4 | Nombre de cellules x 10^4 (ERYTH[…] K562; 5 µg/ml, 48 heures): 20,9 ± 2,1 x 10^4 | Nombre de cellules x 10^4 (ERYTH[…] K562; 5 µg/ml, 72 heures): 35,5 ± 2,0 x 10^4 | Nombre de cellules x 10^4 (ERYTH[…] K562; 10 µg/ml, 24 heures): 17,4 ± 0,9 x 10^4 | Nombre de cellules x 10^4 (ERYTH[…] K562; 10 µg/ml, 48 heures): 21,1 ± 0,2 x 10^4 | Nombre de cellules x 10^4 (ERYTH[…] K562; 10 µg/ml, 72 heures): 26,9 ± 2,3 x 10^4 | Nombre de cellules x 10^4 (ERYTH[…] K562; 50 µg/ml, 24 heures): 13,2 ± 1,7 x 10^4 | Nombre de cellules x 10^4 (ERYTH[…] K562; 50 µg/ml, 48 heures): 15,0 ± 1,5 x 10^4 | Nombre de cellules x 10^4 (ERYTH[…] K562; 50 µg/ml, 72 heures): 17,4 ± 1,3 x 10^4 | Nombre de cellules x 10^4 (ERYTH[…] K562; 100 µg/ml, 24 heures): 11,6 ± 0,4 x 10^4 | Nombre de cellules x 10^4 (ERYTH[…] K562; 100 µg/ml, 48 heures): 14,7 ± 0,1 x 10^4 | Nombre de cellules x 10^4 (ERYTH[…] K562; 100 µg/ml, 72 heures): 15,0 ± 0,8 x 10^4 | effet sur la croissance in vitro de l'érythroleucémie humaine K562 (result in words) (ERYTH[…] K562; in vitro, MYCLAz: même à dose toxique): inhibe d'une manière très remarquable la croissance in vitro | amplitude de la plage de doses à effet significatif (ERYTH[…] K562; ratio of highest to lowest significant dose): ≥ 10 000 | T/C (%) ([2]; 100 mg/kg i.p. x 9 (j 1 à 9)): 141% | T/C (%) ([2]; 150 mg/kg i.p. x 9 (j 1 à 9)): 123% | T/C (%) ([2]; 200 mg/kg i.p. x 9 (j 1 à 9)): 129% | solubility ([3]; serum, sérum physiologique, read-out: solubilité dans le sérum physiologique): > 20 mg/mL | solubility ([3]; water, eau, read-out: solubilité dans l'eau): > 20 mg/mL | T/C (%) (LEUCEMIE L1210; Tableau 1, 25 mg/kg i.p. x j 1,5,9): 117% | T/C (%) (LEUCEMIE L1210; Tableau 1, 25 mg/kg i.p. x j 1-9): 131% | T/C (%) (LEUCEMIE L1210; Tableau 1, 50 mg/kg i.p. x j 1): 131% | T/C (%) (LEUCEMIE L1210; Tableau 1, 50 mg/kg i.p. x j 1,5,9): 131% | T/C (%) (LEUCEMIE L1210; Tableau 1, 50 mg/kg i.p. x j 1-9): 150% | T/C (%) (LEUCEMIE L1210; Tableau 1, 75 mg/kg i.p. x j 1-9): 140% | T/C (%) (LEUCEMIE L1210; Tableau 1, 100 mg/kg i.p. x j 1): 125% | T/C (%) (LEUCEMIE L1210; Tableau 1, 100 mg/kg i.p. x j 1,5,9): 137% | T/C (%) (LEUCEMIE L1210; Tableau 1, 100 mg/kg i.p. x j 1-9): 140% | T/C (%) (LEUCEMIE L1210; Tableau 1, 150 mg/kg i.p. x j 1-9): 170% | T/C (%) (LEUCEMIE L1210; Tableau 1, 200 mg/kg i.p. x j 1): 156% | T/C (%) (LEUCEMIE L1210; Tableau 1, 200 mg/kg i.p. x j 1,5,9): 159% | T/C (%) (LEUCEMIE L1210; Tableau 1, 300 mg/kg i.p. x j 1): 135% | T/C (%) (LEUCEMIE L1210; Tableau 1, 300 mg/kg i.p. x j 1,5,9): 164% | T/C (%) (LEUCEMIE L1210; Tableau 1, 400 mg/kg i.p. x j 1): 130% | T/C (%) (LEUCEMIE L1210; Tableau 1, 12,5 mg/kg i.p. x j 1-9): 112% | T/C (%) (LEUCEMIE L1210; Tableau 10, 25 mg/kg i.p. x j 1-9): 141% | T/C (%) (LEUCEMIE L1210; Tableau 10, 50 mg/kg i.p. x j 1,5,9): 123% | T/C (%) (LEUCEMIE L1210; Tableau 10, 50 mg/kg i.p. x j 1-9): 152% | T/C (%) (LEUCEMIE L1210; Tableau 10, 100 mg/kg i.p. x j 1): 135% | T/C (%) (LEUCEMIE L1210; Tableau 10, 100 mg/kg i.p. x j 1,5,9): 152% | T/C (%) (LEUCEMIE L1210; Tableau 10, 100 mg/kg i.p. x j 1-9): 170% | T/C (%) (LEUCEMIE L1210; Tableau 10, 150 mg/kg i.p. x j 1,5,9): 176% | T/C (%) (LEUCEMIE L1210; Tableau 10, 150 mg/kg i.p. x j 1-9): 182% | T/C (%) (LEUCEMIE L1210; Tableau 10, 200 mg/kg i.p. x j 1): 147% | T/C (%) (LEUCEMIE L1210; Tableau 10, 250 mg/kg i.p. x j 1,5,9): 194% | T/C (%) (LEUCEMIE L1210; Tableau 10, 300 mg/kg i.p. x j 1): 158% | T/C (%) (LEUCEMIE L1210; Tableau 10, 400 mg/kg i.p. x j 1): Δ | activité sur la leucémie L1210 (result in words) (LEUCEMIE L1210; quel que soit le protocole utilisé): relativement faible | T/C (%) (LEUCEMIE P388; Tableau 2, inoculation i.p., 100 mg/kg i.p. x 9 (j 1 à 9)): 245% | T/C (%) (LEUCEMIE P388; Tableau 2, inoculation i.p., 150 mg/kg i.p. x 9 (j 1 à 9)): 135% | T/C (%) (LEUCEMIE P388; Tableau 2, inoculation i.p., 200 mg/kg i.p. x 9 (j 1 à 9)): 110% | T/C (%) (LEUCEMIE P388; Tableau 9, 25 mg/kg i.p. x j 1-9): 166% | T/C (%) (LEUCEMIE P388; Tableau 9, 50 mg/kg i.p. x j 1,5,9): 161% | T/C (%) (LEUCEMIE P388; Tableau 9, 50 mg/kg i.p. x j 1-9): 176% | T/C (%) (LEUCEMIE P388; Tableau 9, 100 mg/kg i.p. x j 1): 152% | T/C (%) (LEUCEMIE P388; Tableau 9, 100 mg/kg i.p. x j 1,5,9): 190% | T/C (%) (LEUCEMIE P388; Tableau 9, 100 mg/kg i.p. x j 1-9 (9Q1D)): 260% | T/C (%) (LEUCEMIE P388; Tableau 9, 150 mg/kg i.p. x j 1,5,9): 219% | T/C (%) (LEUCEMIE P388; Tableau 9, 150 mg/kg i.p. x j 1-9): 195% | T/C (%) (LEUCEMIE P388; Tableau 9, 200 mg/kg i.p. x j 1): 166% | T/C (%) (LEUCEMIE P388; Tableau 9, 250 mg/kg i.p. x j 1,5,9 (Q4D)): 285% | T/C (%) (LEUCEMIE P388; Tableau 9, 300 mg/kg i.p. x j 1): 166% | T/C (%) (LEUCEMIE P388; Tableau 9, 400 mg/kg i.p. x j 1): 200% | Volume de la tumeur (d^2.D/2)cm^3 ± S.E. ([4]; 200 mg/kg i.p. x j 1,5,9, jour 10): 0,53±0,08 cm^3 | Volume de la tumeur (d^2.D/2)cm^3 ± S.E. ([4]; 200 mg/kg i.p. x j 1,5,9, jour 13): 1,64±0,18 cm^3 | Volume de la tumeur (d^2.D/2)cm^3 ± S.E. ([4]; 200 mg/kg i.p. x j 1,5,9, jour 17): 3,49±0,15* cm^3 | Volume de la tumeur (d^2.D/2)cm^3 ± S.E. ([4]; 200 mg/kg i.p. x j 1,5,9, jour 20): 4,35±0,26* cm^3 | Volume de la tumeur (d^2.D/2)cm^3 ± S.E. ([4]; 200 mg/kg i.p. x j 1,5,9, jour 24): 6,08±0,31* cm^3 | Métastases Nombre moyen (N ± S.E.) [4, 5]: 14 ± 3,4 | Métastases Poids moyen (mg ± S.E.) [4, 5]: 127,3 ± 43,1 mg | Poids moyen de la tumeur (g ± S.E.) [4, 5]: 7,40 ± 0,33 g | activité sur le carcinome du poumon de Lewis (result in words) ([4]; souris C57B1/6): intéressante activité
